Laboratory results from US11911361B2, “Stable cannabinoid formulations” (priority 2014, dated 2024).

Experiments:
[1] = tested on: paclitaxel-induced mechanical sensitivity; experiment: Paclitaxel induced neuropathic pain study (Von Frey mechanical sensitivity); type: in vivo, mice
[2] = tested on: oxaliplatin-induced peripheral neuropathy; experiment: Oxaliplatin induced neuropathic pain study; type: in vivo; conditions: CBD 15 minutes prior to single oxaliplatin 6 mg/kg
Method: A study was designed to test the efficacy of CBD in preventing oxaliplatin- or vincristine-induced peripheral neuropathy. Two doses of CBD and vehicle were tested against each of these first line chemotherapeutic agents. Oxaliplatin was administered once at a dose of 6 mg/kg. CBD was administered 15 minutes prior to the single oxaliplatin injection. Vincristine was administered once daily for 7 days at a dose of 0.1 mg/kg. CBD was administered 15 minutes prior to each vincristine injection. For each treatment group the final sample size was 8 animals.

[3] = tested on: minimal muscular or neurological impairment; experiment: Minimal motor impairment toxicity test (TOX), rats; type: in vivo; conditions: Anticonvulsant Screening
clinical = conditions: human, in vivo, po, 20 mg/kg, single 20 mg/kg oral dose of cannabidiol solution, mean; for CL/F / Vd/F: cannabidiol; for half-life: t1/2, cannabidiol
Method: An open label, randomized, single-dose, two-period, two-way crossover food-effect study was conducted on healthy subjects. […] Twenty-four (24) subjects were enrolled in the study and each were subjected to the fasted and fed treatment arms in separate periods followed by a 7-day wash-out period. For pharmacokinetic analysis, nominal time and default lambda-z selections were used. All below quantifiable limit values were set to zero and all subjects were included in the analysis.
Data from 13 subjects from the fasted treatment and 24 subject from the fed treatment were included in the pharmacokinetic and statistical analyses.

[4] = tested on: maximal electroshock-induced seizures; experiment: Maximal electroshock test (MES), mice; conditions: for MES N/F (animals protected/tested): mice
[5] = tested on: Metrazol-induced clonic seizure; experiment: Subcutaneous Metrazol (sc Met) seizure test; conditions: for Sc MET N/F (animals protected/tested): mice; for ED50: Mus musculus, sc
[6] = ED50 Biological Response (Table 59), 120 mg/kg, 2 h, ethanol:polyethoxylated castor oil:PBS

With `C=C(C)[C@@H]1CCC(C)=C[C@H]1c1c(O)cc(CCCCC)cc1O` [cannabidiol, (−)-trans-2-p-mentha-1,8-dien-3-yl-5-pentylresorcinol] the “alleviating chemotherapy-induced neuropathic pain (in words)” value ([1]; Example 7, IP, Day 21) was “most effective level of alleviating chemotherapy-induced neuropathic pain”, the minimal effective dose ([1]; IP) was 1.25 mg/kg and the “effect on paclitaxel-induced mechanical sensitivity (in words)” value ([1]; pretreatment 15 minutes prior to each paclitaxel injection, IP) was “significantly attenuated”. For the same molecule, the “effect on oxaliplatin-induced mechanical sensitivity (in words)” value [2] was “attenuated”, the “TOX N/F (minimal motor impairment)” value ([3]; dose 30, 1.0 h, ethanol:polyethoxylated castor oil:PBS) was 0/4 and the “TOX N/F (minimal motor impairment)” value ([3]; dose 30, 1.0 h, methylcellulose) was 0/4. For the same molecule, the “TOX N/F (minimal motor impairment)” value ([3]; dose 30, 2.0 h, ethanol:polyethoxylated castor oil:PBS) was 0/4, the “TOX N/F (minimal motor impairment)” value ([3]; dose 30, 2.0 h, methylcellulose) was 0/4 and the “TOX N/F (minimal motor impairment)” value ([3]; dose 30, 4.0 h, ethanol:polyethoxylated castor oil:PBS) was 0/4. For the same molecule, the “TOX N/F (minimal motor impairment)” value ([3]; dose 30, 4.0 h, methylcellulose) was 0/4, the “TOX N/F (minimal motor impairment)” value ([3]; dose 100, 1.0 h, ethanol:polyethoxylated castor oil:PBS) was 0/4 and the “TOX N/F (minimal motor impairment)” value ([3]; dose 100, 1.0 h, methylcellulose) was 0/4. The “TOX N/F (minimal motor impairment)” value ([3]; dose 100, 2.0 h, ethanol:polyethoxylated castor oil:PBS) was 0/4, the “TOX N/F (minimal motor impairment)” value ([3]; dose 100, 2.0 h, methylcellulose) was 0/4 and the “TOX N/F (minimal motor impairment)” value ([3]; dose 100, 4.0 h, ethanol:polyethoxylated castor oil:PBS) was 0/4. For the same molecule, the “TOX N/F (minimal motor impairment)” value ([3]; dose 100, 4.0 h, methylcellulose) was 0/4, the CL/F (clinical; fasted) was 1140 mL/min/kg and the CL/F (clinical; fed) was 36.2 mL/min/kg. It also gave a Vd/F (clinical; fasted) of 2680 L/kg, a Vd/F (clinical; fed) of 133 L/kg and a half-life (clinical; fasted) of 27.9 h. For the same molecule, the half-life (clinical; fed) was 42.3 h, the “MES N/F (animals protected/tested)” value ([4]; Anticonvulsant Screening, intraperitoneal, 10 mg/kg, 0.5 h, ethanol:polyethoxylated castor oil:PBS) was 0/4 and the “MES N/F (animals protected/tested)” value ([4]; Anticonvulsant Screening, intraperitoneal, 10 mg/kg, 0.5 h, methylcellulose) was 0/4. For the same molecule, the “MES N/F (animals protected/tested)” value ([4]; Anticonvulsant Screening, intraperitoneal, 10 mg/kg, 1.0 h, ethanol:polyethoxylated castor oil:PBS) was 0/4, the “MES N/F (animals protected/tested)” value ([4]; Anticonvulsant Screening, intraperitoneal, 10 mg/kg, 1.0 h, methylcellulose) was 0/4 and the “MES N/F (animals protected/tested)” value ([4]; Anticonvulsant Screening, intraperitoneal, 10 mg/kg, 2.0 h, ethanol:polyethoxylated castor oil:PBS) was 0/4. For the same molecule, the “MES N/F (animals protected/tested)” value ([4]; Anticonvulsant Screening, intraperitoneal, 10 mg/kg, 2.0 h, methylcellulose) was 0/4, the “MES N/F (animals protected/tested)” value ([4]; Anticonvulsant Screening, intraperitoneal, 30 mg/kg, 0.5 h, ethanol:polyethoxylated castor oil:PBS) was 0/4 and the “MES N/F (animals protected/tested)” value ([4]; Anticonvulsant Screening, intraperitoneal, 30 mg/kg, 0.5 h, methylcellulose) was 0/4. For the same molecule, the “MES N/F (animals protected/tested)” value ([4]; Anticonvulsant Screening, intraperitoneal, 30 mg/kg, 1.0 h, ethanol:polyethoxylated castor oil:PBS) was 1/4, the “MES N/F (animals protected/tested)” value ([4]; Anticonvulsant Screening, intraperitoneal, 30 mg/kg, 1.0 h, methylcellulose) was 0/4 and the “MES N/F (animals protected/tested)” value ([4]; Anticonvulsant Screening, intraperitoneal, 30 mg/kg, 2.0 h, ethanol:polyethoxylated castor oil:PBS) was 0/4. For the same molecule, the “MES N/F (animals protected/tested)” value ([4]; Anticonvulsant Screening, intraperitoneal, 30 mg/kg, 2.0 h, methylcellulose) was 0/4, the “MES N/F (animals protected/tested)” value ([4]; Anticonvulsant Screening, intraperitoneal, 100 mg/kg, 0.5 h, ethanol:polyethoxylated castor oil:PBS) was 0/4 and the “MES N/F (animals protected/tested)” value ([4]; Anticonvulsant Screening, intraperitoneal, 100 mg/kg, 0.5 h, methylcellulose) was 0/4. For the same molecule, the “MES N/F (animals protected/tested)” value ([4]; Anticonvulsant Screening, intraperitoneal, 100 mg/kg, 1.0 h, ethanol:polyethoxylated castor oil:PBS) was 2/4, the “MES N/F (animals protected/tested)” value ([4]; Anticonvulsant Screening, intraperitoneal, 100 mg/kg, 1.0 h, methylcellulose) was 1/4 and the “MES N/F (animals protected/tested)” value ([4]; Anticonvulsant Screening, intraperitoneal, 100 mg/kg, 2.0 h, ethanol:polyethoxylated castor oil:PBS) was 1/4. For the same molecule, the “MES N/F (animals protected/tested)” value ([4]; Anticonvulsant Screening, intraperitoneal, 100 mg/kg, 2.0 h, methylcellulose) was 2/4, the “MES N/F (animals protected/tested)” value ([4]; ED50 Biological Response (Table 57), 200 mg/kg, 2 h, methylcellulose) was 5/8 and the “MES N/F (animals protected/tested)” value ([4]; ED50 Biological Response (Table 57), 250 mg/kg, 2 h, methylcellulose) was 4/8. For the same molecule, the “MES N/F (animals protected/tested)” value ([4]; ED50 Biological Response (Table 57), 350 mg/kg, 2 h, methylcellulose) was 3/8, the “MES N/F (animals protected/tested)” value ([4]; ED50 Biological Response (Table 57), 400 mg/kg, 2 h, methylcellulose) was 3/8 and the “MES N/F (animals protected/tested)” value ([4]; ED50 Biological Response (Table 57), 450 mg/kg, 2 h, methylcellulose) was 6/8. For the same molecule, the “MES N/F (animals protected/tested)” value ([4]; ED50 Biological Response (Table 57), 500 mg/kg, 2 h, methylcellulose) was 8/8, the “MES N/F (animals protected/tested)” value ([4]; ED50 Biological Response (Table 59), 75 mg/kg, 2 h, ethanol:polyethoxylated castor oil:PBS) was 1/8 and the “MES N/F (animals protected/tested)” value ([4]; ED50 Biological Response (Table 59), 95 mg/kg, 2 h, ethanol:polyethoxylated castor oil:PBS) was 5/8. For the same molecule, the “MES N/F (animals protected/tested)” value [4, 6] was 7/8, the “MES N/F (animals protected/tested)” value ([4]; ED50 Biological Response (Table 59), 150 mg/kg, 2 h, ethanol:polyethoxylated castor oil:PBS) was 8/8 and the ED50 ([4]; Mus musculus) was 92.2 mg/kg. The “MES N/F (animals protected/tested)” value ([4]; Tables 57/58, 300 mg/kg, 2 h, methylcellulose) was 4/8, the “MES N/F (animals protected/tested)” value ([4]; Time to Peak Effect (Table 58), 300 mg/kg, 0.25 h, methylcellulose) was 0/4 and the “MES N/F (animals protected/tested)” value ([4]; Time to Peak Effect (Table 58), 300 mg/kg, 0.5 h, methylcellulose) was 1/4. The “MES N/F (animals protected/tested)” value ([4]; Time to Peak Effect (Table 58), 300 mg/kg, 1 h, methylcellulose) was 1/4, the “MES N/F (animals protected/tested)” value ([4]; Time to Peak Effect (Table 58), 300 mg/kg, 4 h, methylcellulose) was 2/4 and the ED50 ([4]; methylcellulose solvent) was “could not be calculated”. The “animals protected / tested” value ([4]; methylcellulose solvent, 0.5 hr) was “¼”, the “animals protected / tested” value ([4]; methylcellulose solvent, 1 hr) was “¼” and the “animals protected / tested” value ([4]; methylcellulose solvent, 2 hr) was 4/8. For the same molecule, the “animals protected / tested” value ([4]; methylcellulose solvent, 4 hr) was 2/4, the “Sc MET N/F (animals protected/tested)” value ([5]; ED50 Biological Response (Table 57), 150 mg/kg, 2 h, methylcellulose) was 1/8 and the “Sc MET N/F (animals protected/tested)” value ([5]; ED50 Biological Response (Table 57), 300 mg/kg, 2 h, methylcellulose) was 5/8. For the same molecule, the “Sc MET N/F (animals protected/tested)” value ([5]; ED50 Biological Response (Table 57), 360 mg/kg, 2 h, methylcellulose) was 7/8, the “Sc MET N/F (animals protected/tested)” value [5, 6] was 0/8 and the “Sc MET N/F (animals protected/tested)” value ([5]; ED50 Biological Response (Table 59), 160 mg/kg, 2 h, ethanol:polyethoxylated castor oil:PBS) was 2/8. The “Sc MET N/F (animals protected/tested)” value ([5]; ED50 Biological Response (Table 59), 220 mg/kg, 2 h, ethanol:polyethoxylated castor oil:PBS) was 5/8, the “Sc MET N/F (animals protected/tested)” value ([5]; ED50 Biological Response (Table 59), 260 mg/kg, 2 h, ethanol:polyethoxylated castor oil:PBS) was 7/8 and the ED50 ([5]; 1:1:18 ethanol:polyethoxlated castor oil:PBS solvent) was 199 mg/kg. For the same molecule, the ED50 ([5]; methylcellulose solvent) was 241 mg/kg, the “Sc MET N/F (animals protected/tested)” value ([5]; Tables 57/58, 200 mg/kg, 2 h, methylcellulose) was 3/8 and the “Sc MET N/F (animals protected/tested)” value ([5]; Time to Peak Effect (Table 58), 200 mg/kg, 0.25 h, methylcellulose) was 0/4. The “Sc MET N/F (animals protected/tested)” value ([5]; Time to Peak Effect (Table 58), 200 mg/kg, 0.5 h, methylcellulose) was 0/4 and the “Sc MET N/F (animals protected/tested)” value ([5]; Time to Peak Effect (Table 58), 200 mg/kg, 1 h, methylcellulose) was 2/8.
